The text below walks through data of patent US20040044079A1, “Methods and compositions for weight control” (The IAMS Company, priority 2002, published 2004).

Experiment [1] in a line: Weekly body weight / weight loss of dogs on treatment diets. The format is in vivo. Conditions: for weight loss: phase II, compared with control diet, FIGS. 3 and 4. The procedure:
(§1) In phase I of the study, 80 beagle and mongrel dogs were fed a weight gain diet (36% protein, 26% fat by dry weight). The dogs were allowed to eat as much as they wished for 16 weeks. Weekly weight gain and daily food intake were measured for each dog. In phase II, the 20 dogs that were the poorest weight […] eliminated from the study. The 60 remaining dogs were randomly assigned to one of the four treatment groups. The treatment diets were the following: The dogs were given the treatment diets for 12 weeks. During this time the dogs were allowed to eat as much as they wished. Daily food intake and weekly body weight were measured. Body composition measurements were also taken, including fat, lean body mass, bone mineral content (BMC), and bone mineral density (BMD). These measurements help to determine the cause of weight loss-for instance, whether it is due to an increase in satiety and therefore reduced food intake, or an increase in thermogenesis. The measurements also allow a determination of whether weight loss results from a reduction in lean body mass or a loss of fat, or a combination of both.

Experiment [2] in a line: Average body condition scores of dogs on treatment diets. The format is in vivo. Conditions: for Average Body Condition Score: score 1 thin to 5 obese (Table 1); for Average Body Condition Score % Change: Day 0 to Day 84. The procedure:
as §1, with “both. [table]” for “both.”

The nature of experiment [3]: Whole body composition of overweight dogs fed treatment diets for 12 weeks. The experiment is classed as in vivo. Conditions: for Area: absolute data; for Area (relative data) / BMD (relative data) / Lean + BMC (relative data) / Total (relative data) / BMC (relative data) / Fat (relative data) / Lean (relative data): relative change, beginning to end of phase II. As for the experimental part:
as §1, with “following: Control. Similar to EUKANUBA REDUCED FAT dry dog food, consisting of approximately 19% protein and 10% fat on a dry weight basis, with an additional 3% poultry fat to achieve a total fat content of 13%. Free fatty acid mix. Identical to the control diet, but with 3% free fatty acids in place of the 3% poultry fat. The free fatty acid was technical grade linoleic acid. Ethyl esters of fatty acid mix. Identical to control diet, but with 3% ethyl ester of fatty acid in place of the 3% poultry fat. The ethyl ester used was ethyl oleate. Lotus leaf extract. Identical to the control, but with an additional 0.3% extract of lotus leaf. Lotus leaf extract has been used in China to promote human weight loss. It is purported to help induce a sense of satiety and reduce food consumption.” for “following:”

Experiment [4] can be described thus: Daily food intake of dogs on treatment diets. The format is in vivo. The note with it: experimental period of phase II, compared among the four diets, FIGS. 1 and 2. The procedure: as §1
For experiment [5] the following is noted: incorporated into a high fat diet fed to mice; U.S. Pat. No. 6,054,480; cited from earlier work.
[6] abbreviates: second Lean column (body share).

Take `CCCCC/C=C\C/C=C\CCCCCCCC(=O)O` [T × 1, linoleic acid]: in experiment [1], the weight loss entry was “generally greatest”. For the same compound, the “Average Body Condition Score” value in experiment [2] (Day 0) is given as 4.1. For the same compound, the “Average Body Condition Score % Change” value in experiment [2] is on record as −19.5%. Further, the “Average Body Condition Score” value in experiment [2] (Day 84) worked out at 3.3. In experiment [3] (Day 0, absolute data), the “BMC (bone mineral content)” value stood at 263.95 g, the Fat was 5772.09 g, the Lean is recorded as 9840.21 g and the “Lean + BMC” value is on record as 10104.15 g. Moreover, the Total in experiment [3] (Day 0, absolute data) was 15876.27 g. Moreover, in experiment [3] (Day 0, share of whole body), the BMC amounted to 1.67%, the Fat is 35.74% and the Lean stood at 62.58%. In experiment [3] (Day 0, start of phase II), the Area is listed as 402.07 cm^2. For the same compound, in experiment [3] (Day 84, absolute data), the “BMC (bone mineral content)” value worked out at 257.27 g, the Fat came out at 4109.94 g, the Lean is 9607.27 g and the “Lean + BMC” value is on record as 9864.54 g. For the same compound, the Total in experiment [3] (Day 84, absolute data) turned out to be 13974.49 g. Further, the Area in experiment [3] (Day 84, end of phase II) came out at 387.39 cm^2. For the same compound, in experiment [3] (Day 84, share of whole body), the BMC was found to be 1.84%, the Fat is on record as 29.22% and the Lean is 68.94%. Moreover, in experiment [3], the “Area (relative data)” value was −3.98%, the “BMD (relative data)” value was determined as 1.15%, the “Lean + BMC (relative data)” value was −2.38% and the “Total (relative data)” value was −11.75%. For the same compound, the “BMC (relative data)” value in experiment [3] (first BMC column) is recorded as −3.06%. For the same compound, the “Fat (relative data)” value in experiment [3] (first Fat column (mass)) is −28.22%. Moreover, the “Lean (relative data)” value in experiment [3] (first Lean column (mass)) is on record as −2.34%. Besides, the “BMC (relative data)” value in experiment [3] (second BMC column (body share)) is 10.16%. Moreover, the “Fat (relative data)” value in experiment [3] (second Fat column (body share)) is recorded as −18.59%. Further, the “Lean (relative data)” value in experiment [3] (setting [6]) came to 10.84%. Moreover, the food intake result in experiment [4] is given as “ate intermediate amounts, slightly more than the control diet”.

As to `CCCCCCCC/C=C\CCCCCCCC(=O)OCC` [T × 2, ethyl oleate], the average weight result in experiment [1] (10th-12th weeks of phase II, compared with control group) is recorded as “average weight increased above that of the control group”. Also, in experiment [1], the weight loss result is “lost more weight than the control group for the first 9 weeks of phase II”. In addition, the “Average Body Condition Score” value in experiment [2] (Day 0) stood at 4.0; in experiment [2] (Day 84) it was 3.7. The “Average Body Condition Score % Change” value in experiment [2] is −7.5%. The “BMC (bone mineral content)” value was found to be 253.62 g in experiment [3] (Day 0, absolute data) and 229.74 g in experiment [3] (Day 84, absolute data). The Fat in experiment [3] (Day 0, absolute data) is on record as 5956.12 g; in experiment [3] (Day 0, share of whole body), 36.77%; in experiment [3] (Day 84, absolute data), 4723.12 g; in experiment [3] (Day 84, share of whole body), 31.44%. The Lean amounted to 9667.31 g in experiment [3] (Day 0, absolute data); 61.63% in experiment [3] (Day 0, share of whole body); 9837.15 g in experiment [3] (Day 84, absolute data); 66.99% in experiment [3] (Day 84, share of whole body). For the same compound, the Lean + BMC worked out at 9920 g in experiment [3] (Day 0, absolute data) and 10066.89 g in experiment [3] (Day 84, absolute data). Further, the Total is 15877.02 g in experiment [3] (Day 0, absolute data) and 14790.01 g in experiment [3] (Day 84, absolute data). Also, the BMC in experiment [3] (Day 0, share of whole body) is 1.61%; in experiment [3] (Day 84, share of whole body) it was 1.57%. For the same compound, the Area was 395.54 cm^2 in experiment [3] (Day 0, start of phase II) and 362.26 cm^2 in experiment [3] (Day 84, end of phase II). Further, the “Area (relative data)” value in experiment [3] is recorded as −7.99%. Moreover, the “BMD (relative data)” value in experiment [3] is −0.58%. For the same compound, the “Lean + BMC (relative data)” value in experiment [3] is on record as −4.69%. For the same compound, the “Total (relative data)” value in experiment [3] is on record as −6.56%. The “BMC (relative data)” value in experiment [3] (first BMC column) is on record as −8.58%; in experiment [3] (second BMC column (body share)), −2.39%. For the same compound, the “Fat (relative data)” value in experiment [3] (first Fat column (mass)) was −18.59%; in experiment [3] (second Fat column (body share)), −13.43%. Also, the “Lean (relative data)” value was 2.06% in experiment [3] (first Lean column (mass)) and 9.61% in experiment [3] (setting [6]). Further, the food intake entry in experiment [4] was “ate intermediate amounts, slightly more than the control diet”.

As for `CCCCCCCCCCCCCC(=O)O` [myristic acid], in experiment [5], the “effect on body weight” value was “caused weight loss or reduction of weight gain in the mice”.
